In ChEMBL document CHEMBL1201862, “PubChem BioAssay data set” (2004):
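In this assay, cells in 96-well plates receive the compound at five concentrations for 48 hours. Endpoints are linearly interpolated between the surrounding concentrations. Abbreviation: GI50, concentration required for 50% inhibition of growth.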 Calls of active or inactive are those of the source. No stated cut-off is given here; in the data, active = GI50 up to about 1.1 µM and inactive = higher.

What was measured:
Experiment in all cases: DTP human tumour cell line panel, 48 h
[1] = system: HCT-116
[2] = system: RXF 393
[3] = system: COLO 205
[4] = system: NCI/ADR-RES
[5] = system: NCI-H23
[6] = system: SK-MEL-2
[7] = system: EKVX
[8] = system: SK-OV-3
[9] = system: HCT-15
[10] = system: OVCAR-3
[11] = system: HOP-92
[12] = system: NCI-H460
[13] = system: K562
[14] = system: NCI-H522
[15] = system: RPMI-8226
[16] = system: 786-0
[17] = system: SF-539
[18] = system: HL-60
[19] = system: MCF7
[20] = system: CAKI-1

SMILES	GI50 [1]	GI50 [2]	GI50 [3]	GI50 [4]	GI50 [5]	GI50 [6]	GI50 [7]	GI50 [8]	GI50 [9] [µM]	GI50 [10]	GI50 [11]	GI50 [12]	GI50 [13]	GI50 [14]	GI50 [15]	GI50 [16]	GI50 [17]	GI50 [18]	GI50 [19]	GI50 [20]
c1ccc2c(c1)NC1(N3CCCCC3)CCCCC21 (stereo not given)	37.9 µM (inactive)	9.16 µM (inactive)	62.1 µM (inactive)	91.8 µM (inactive)	50.5 µM (inactive)	49.3 µM (inactive)	25.5 µM (inactive)	> 100 µM (inactive)	44	41.7 µM (inactive)	20 µM (inactive)	50.6 µM (inactive)	38.8 µM (inactive)	35.8 µM (inactive)	39.1 µM (inactive)	61 µM (inactive)	> 100 µM (inactive)	29.6 µM (inactive)	36.1 µM (inactive)	55.6 µM (inactive)
O=C1/C(=C\c2cccc(Oc3ccccc3)c2)SC(c2ccccc2)N1Cc1ccccc1 (stereo not given)	14.9 µM (inactive)	20.1 µM (inactive)	10.3 µM (inactive)	20.4 µM (inactive)	22.7 µM (inactive)	18.2 µM (inactive)	28 µM (inactive)	19.1 µM (inactive)	32.8	23.5 µM (inactive)	19 µM (inactive)	33.3 µM (inactive)	29.9 µM (inactive)	18.2 µM (inactive)	24.3 µM (inactive)	34.8 µM (inactive)	18.5 µM (inactive)	23.3 µM (inactive)	26.1 µM (inactive)	49.7 µM (inactive)
COC(=O)c1ccccc1Nc1ccccc1C(=O)OC	> 100 µM (inactive)	68.7 µM (inactive)	> 100 µM (inactive)	> 100 µM (inactive)	> 100 µM (inactive)	> 100 µM (inactive)	> 100 µM (inactive)	> 100 µM (inactive)	> 100	79.6 µM (inactive)	23.4 µM (inactive)	> 100 µM (inactive)	> 100 µM (inactive)	32.1 µM (inactive)	64.1 µM (inactive)	53.5 µM (inactive)	83 µM (inactive)	> 100 µM (inactive)	> 100 µM (inactive)	> 100 µM (inactive)
Cc1cn(C2CCN(CC3COC(C)(C)O3)O2)c(=O)[nH]c1=O (stereo not given)	> 100 µM (inactive)	> 100 µM (inactive)	> 100 µM (inactive)	> 100 µM (inactive)	> 100 µM (inactive)	> 100 µM (inactive)	> 100 µM (inactive)	> 100 µM (inactive)	> 100	> 100 µM (inactive)	> 100 µM (inactive)	> 100 µM (inactive)	> 100 µM (inactive)	> 100 µM (inactive)	> 100 µM (inactive)	> 100 µM (inactive)	> 100 µM (inactive)	> 100 µM (inactive)	> 100 µM (inactive)	> 100 µM (inactive)
CCOC(=O)[C@@H]1ON2OC(OC3CCCC3(c3ccccc3)c3ccccc3)C(OC(C)=O)[C@H]3OC(=O)[C@@H]1C32 (stereo not given in full)	29.6 µM (inactive)	27.4 µM (inactive)	> 100 µM (inactive)	> 100 µM (inactive)	> 100 µM (inactive)	68.7 µM (inactive)	89.7 µM (inactive)	> 100 µM (inactive)	> 100	30.5 µM (inactive)	> 100 µM (inactive)	> 100 µM (inactive)	97.9 µM (inactive)	21.2 µM (inactive)	> 100 µM (inactive)	92.3 µM (inactive)	56.6 µM (inactive)	31.3 µM (inactive)	21.3 µM (inactive)	> 100 µM (inactive)
O=C(c1ccccc1)C(C(=O)c1ccccc1)c1nc2ccccc2sc1=O	12 µM (inactive)	> 25 µM (inactive)	12.5 µM (inactive)	10.5 µM (inactive)	16.6 µM (inactive)	13.5 µM (inactive)	16.1 µM (inactive)	6.46 µM (inactive)	7.48	> 25 µM (inactive)	2.72 µM (inactive)	11.4 µM (inactive)	12 µM (inactive)	9.57 µM (inactive)	7.18 µM (inactive)	12.1 µM (inactive)	17.1 µM (inactive)	> 25 µM (inactive)	12.2 µM (inactive)	13.1 µM (inactive)
CC(Cl)(CCC(Cl)C(C)(C)Cl)C(=O)CBr (stereo not given)	7.05 µM (inactive)	2.88 µM (inactive)	6.27 µM (inactive)	22.8 µM (inactive)	18.3 µM (inactive)	14.7 µM (inactive)	16.4 µM (inactive)	13.4 µM (inactive)	8.28	15.4 µM (inactive)	7.93 µM (inactive)	15.9 µM (inactive)	2.88 µM (inactive)	1.95 µM (inactive)	2.25 µM (inactive)	7.94 µM (inactive)	16.1 µM (inactive)	2.24 µM (inactive)	13 µM (inactive)	14 µM (inactive)
NC1NCCC(=O)N1CCc1c[nH]c2ccccc12 (stereo not given)	13.6 µM (inactive)	22.8 µM (inactive)	18.3 µM (inactive)	24.5 µM (inactive)	18.7 µM (inactive)	19.9 µM (inactive)	28.1 µM (inactive)	> 100 µM (inactive)	19.5	20.9 µM (inactive)	31.1 µM (inactive)	16.8 µM (inactive)	22.4 µM (inactive)	87.5 µM (inactive)	37.2 µM (inactive)	20 µM (inactive)	16.7 µM (inactive)	24.8 µM (inactive)	15.5 µM (inactive)	29.2 µM (inactive)
Cc1cc(S(N)(=O)=O)c(SCc2nc(N)nc(N(C)C)n2)cc1Cl	> 10 µM (inactive)	> 10 µM (inactive)	> 10 µM (inactive)	> 10 µM (inactive)	> 10 µM (inactive)	> 10 µM (inactive)	> 10 µM (inactive)	> 10 µM (inactive)	> 10	> 10 µM (inactive)	> 10 µM (inactive)	> 10 µM (inactive)	> 10 µM (inactive)	> 10 µM (inactive)	> 10 µM (inactive)	> 10 µM (inactive)	> 10 µM (inactive)	> 10 µM (inactive)	> 10 µM (inactive)	> 10 µM (inactive)
COc1ccc(C[C@H]2NC[C@H](OC(C)=O)[C@H]2OC(C)=O)cc1	0.105 µM (active)	0.144 µM (active)	0.147 µM (active)	0.171 µM (active)	0.179 µM (active)	0.184 µM (active)	0.136 µM (active)	0.138 µM (active)	0.144	0.233 µM (active)	0.0417 µM (active)	0.172 µM (active)	0.221 µM (active)	0.0525 µM (active)	0.275 µM (active)	0.0776 µM (active)	0.441 µM (active)	0.1 µM (active)	0.14 µM (active)	0.144 µM (active)
O=C1OC(=O)C(=C\c2ccc3c(c2)OCO3)/C1=C/c1ccc2c(c1)OCO2	> 100 µM (inactive)	> 89.1 µM (inactive)	> 100 µM (inactive)	> 100 µM (inactive)	> 80.9 µM (inactive)	> 100 µM (inactive)	> 100 µM (inactive)	> 100 µM (inactive)	> 100	> 100 µM (inactive)	> 100 µM (inactive)	> 100 µM (inactive)	> 79.8 µM (inactive)	36.1 µM (inactive)	> 55.6 µM (inactive)	> 100 µM (inactive)	> 100 µM (inactive)	44.8 µM (inactive)	> 100 µM (inactive)	> 100 µM (inactive)
